Where a name gives a salt, the structure may show the parent alone.
Biological target: Sfp-PPTase (Bacillus subtilis, UniProt P39135)
Experiment: Rhodamine/BHQ-2 dark quench assay
Format: biochemical

Sequence of Sfp-PPTase (P39135 whole entry): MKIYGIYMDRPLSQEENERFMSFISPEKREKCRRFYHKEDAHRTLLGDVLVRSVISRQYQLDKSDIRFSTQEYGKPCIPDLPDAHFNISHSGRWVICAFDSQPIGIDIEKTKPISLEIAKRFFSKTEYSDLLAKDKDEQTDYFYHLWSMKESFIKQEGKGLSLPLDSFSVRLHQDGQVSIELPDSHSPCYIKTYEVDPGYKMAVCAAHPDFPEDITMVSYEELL

- IC50: 14.6 µM
Structure (SMILES): Nc1ncnc2c1ncn2[C@@H]1O[C@H](COP(=O)(O)O)[C@@H](OP(=O)(O)O)[C@H]1O [PAP 3, adenosine 3′, 5′-diphosphate sodium salt]

Source: article PMC2992954 (Molecular bioSystems, 2009)
